Measurements from PubChem BioAssay (NCI).
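Where inhibition never reached the appropriate level, the endpoint shown equals the highest concentration tested. Otherwise, values were interpolated linearly from a five-concentration, 48-hour dose response in 96-well plates. At the GI50, growth is halved. TGI: total growth inhibition.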

Assays:
Assay in all cases: NCI-60 cell line screen, 48 h
ACHN renal = system: ACHN renal
CAKI-1 renal = system: CAKI-1 renal
EKVX NSCLC = system: EKVX NSCLC
HCT-15 colon = system: HCT-15 colon
HS 578T breast = system: HS 578T breast
LOX IMVI melanoma = system: LOX IMVI melanoma
MDA-MB-435 = system: MDA-MB-435
NCI-H460 lung = system: NCI-H460 lung
OVCAR-8 ovarian = system: OVCAR-8 ovarian
SK-MEL-5 melanoma = system: SK-MEL-5 melanoma

Compound | GI50 (ACHN renal) [µM] | TGI (ACHN renal) [µM] | GI50 (CAKI-1 renal) [µM] | TGI (CAKI-1 renal) [µM] | GI50 (EKVX NSCLC) [µM] | TGI (EKVX NSCLC) [µM] | GI50 (HCT-15 colon) [µM] | TGI (HCT-15 colon) [µM] | GI50 (HS 578T breast) [µM] | TGI (HS 578T breast) [µM] | GI50 (LOX IMVI melanoma) [µM] | TGI (LOX IMVI melanoma) [µM] | GI50 (MDA-MB-435) [µM] | TGI (MDA-MB-435) [µM] | GI50 (NCI-H460 lung) [µM] | TGI (NCI-H460 lung) [µM] | GI50 (OVCAR-8 ovarian) [µM] | TGI (OVCAR-8 ovarian) [µM] | GI50 (SK-MEL-5 melanoma) [µM] | TGI (SK-MEL-5 melanoma) [µM]
O=Nc1c(O)c2ccccc2c2ccccc12 | 1.02 | 7.1 | 2.95 | 9 | 1.7 | 3.32 | 0.398 | 2.4 | 2 | 5.65 | 0.294 | 1.06 | 0.179 | 0.317 | 1.06 | 2.49 | 0.653 | 3.88 | 0.56 | 1.77
Oc1c(CNCCNCc2cc(Cl)cc(Cc3ccccc3)c2O)cc(Cl)cc1Cc1ccccc1 | 0.127 | 11.8 | 0.338 | 18.7 | 0.193 | > 100 | 0.139 | 14.9 | 3.91 | 59.3 | 0.136 | 1.66 | 0.435 | 13.2 | 0.331 | 12.2 | 0.474 | > 100 | 0.302 | 1.91
NC(CO)C(=O)NCC(=O)O (centres undefined) |  | > 100 |  | > 100 |  | > 100 |  | > 100 |  | > 100 |  | > 100 |  | > 100 |  | > 100 |  | > 100 |  | > 100
CC(=O)NC1=C(Sc2ccc(Cl)cc2)C(=O)c2ccccc2C1=O |  | 4.85 |  | 14.6 |  | 18.9 |  | 19.1 |  | 61.6 |  | 14 |  | 4.56 |  | 23.2 |  | 6.77 |  | 4.8
Clc1ccc(N2CCC(N3CCCC3)CC2)cc1-c1nc2ccccc2[nH]1 | 26.7 | 67.4 | 19.3 | 50 | 37.9 | > 100 | 18.7 | 38.5 | 16.8 | 51.7 | 18.1 | 35.5 | 17.7 | 35.7 | 22.9 | 50.1 | 22.5 | 60.6 | 6.59 | 17.1
C#CC(=O)OCC#CCOC(=O)C#C |  | 33 |  | 39.1 |  | 29.9 |  | 36.5 |  | 86.5 |  | 2.63 |  | > 100 |  | > 100 |  | 96 |  | > 100
CN(C)CCNc1nc2ccccc2c2occc12 | 28.2 | 85.8 | 52.7 | > 100 | 59.5 | > 100 | 30.1 | > 100 | 99.4 | > 100 | 19.1 | 42.8 | 54.5 | > 100 | 31.7 | > 100 | 62.3 | > 100 | 14.5 | 32.2
Nc1cc2nc3ccccc3oc-2cc1=O | 12.4 | > 79 | 15.3 | > 53.7 | 7.38 | > 64.2 | 0.641 |  | 1.48 | 5.52 | 0.606 | 2.23 | 0.516 | 1.77 | 1.77 | 4.36 | 19.7 | > 100 | 1.16 | 2.38
CN(C)CCOc1ccc(-c2cc(-c3ccc4c(c3)CC/C4=N\O)c(-c3ccncc3)o2)cc1 | 3.62 | 6.98 | 4.19 | 8.71 | 3.93 | 8.07 | 3.35 | 7.09 | 4.59 | 12.4 | 1.66 | 5.63 | 0.156 | 4.39 | 1.1 | 3.95 | 3.97 | 9 | 2.2 | 5.86
CC1(C)CC(=O)c2c(ccc(C(=O)C[C@@H](N)CO)c2N)O1 | 1.25 | > 100 | 0.564 | 23.7 | 19 | > 100 | 0.177 | 12.2 | 20.6 | > 100 | 0.0986 | 1.11 | 2.39 | > 100 | 0.166 | > 100 | 1.08 | > 69.6 | 1.37 | > 43.9
C#C/C=C/CC1OC(C(Br)CC)CC(Br)C2CC1O2 (centres undefined) |  | > 100 |  | > 100 |  | > 100 |  | > 100 |  | > 100 |  | 3.39 |  | > 100 |  | > 100 |  | > 100 |  | > 100
CNC(=O)c1cc2c(Oc3ccc(NC(=S)NC(=O)Cc4ccccc4)cc3F)ccnc2cc1OC | 3.5 | > 100 | 4.23 | > 100 | > 100 | > 100 | 4.7 | > 100 | 1.29 | 8.05 | 4.13 | > 100 | > 27.6 | > 100 | > 100 | > 100 | > 100 | > 100 | > 20.6 | > 100
CN1CCN(c2ccc(C(=O)Nc3cccc(C#Cc4cccc5[nH]nc(N)c45)c3)cc2C(F)(F)F)CC1 | 0.801 | 2.4 | 0.668 | 1.51 | 1.6 | 5.63 | 0.644 | 1.27 | 0.847 | 3.4 | 0.59 | 1.08 | 0.61 | 1.19 | 0.701 | 1.5 | 1.09 | 4.77 | 2.16 | 6.34
O=S(=O)(NCCO)c1cc[c]([Sb](=[O])([OH])[OH])cc1 | > 100 | > 100 | > 100 | > 100 | > 100 | > 100 | > 100 | > 100 | > 100 | > 100 | > 100 | > 100 | > 100 | > 100 | > 100 | > 100 | > 100 | > 100 | > 100 | > 100
O=c1cc(O)c2c(O)cc(O)cc2o1 |  | > 100 |  | > 100 |  | > 100 |  | > 100 |  | > 100 |  | > 100 |  | > 100 |  | > 100 |  | > 100 |  | > 100
